Reference: patent publication US10829798B2, “DNA-linked enzyme-coupled assays” (THE REGENTS OF THE UNIVERSITY OF CALIFORNIA, priority 2014, dated 2020)

Target: T1, OleD (Streptomyces antibioticus, UniProt Q53685, P55A/R82V/R83E/T84P)
T1 construct: made in house; host or cells: PURExpress In Vitro Protein Synthesis Kit (NEB E6800L), cell-free transcription/translation, linear DNA with T7 promoter
Assay: DLEnCA with purified recombinant OleD, agarose gel readout of MfeI digestion of probe DNA
Format: biochemical
Conditions: purified OleD 0.5 μM, acceptor 0.5 mM, 2% agarose gel
Procedure: FIG. 2A-FIG. 2D. DNA-Linked Enzyme-Coupled Assay using purified model enzyme (OleD). A. The OleD-catalyzed glucosylation of kaempferol using UDP-Glc as a donor-molecule. B. Purified recombinant OleD (0.5 μM) was incubated with probe DNA (4.5 nM) in the presence of kaempferol (0.5 mM) and various concentrations of UDP-Glc at 37° C. for 1 hour. Following incubation with TbGT, DNA was digested with MfeI. Digests were analyzed on a 2% agarose gel. […] (ii) A representative gel of the UDP-Glc titration reaction, as-well-as a “ladder” depicting expected DNA digestion sizes, is shown. C. […] Digests were analyzed on a 2% agarose gel (n=4). […] Digests were analyzed on a 2% agarose gel (n=4). […]
In order to verify that DNA protection using TbGT could be used to follow an enzymatic reaction under conditions amenable to downstream DNA analyses, the ability of recombinant OleD to reduce concentrations of UDP-Glc while in the presence of the substrate kaempferol was first tested. […] To identify if this reaction could be monitored by modification of DNA, recombinant OleD was purified (FIG. 5) and incubated with 5-hm-cytosine-modified probe DNA (4.5 nM probe DNA containing 2.5 μM modified 5-hm-cytosines), kaempferol (0.5 mM), and UDP-Glc concentrations varying from 10 μM to 1 mM in a buffered solution. […]

T1 sequence (Q53685 other isoform, or with tags, fused parts or gaps P55A/R82V/R83E/T84P): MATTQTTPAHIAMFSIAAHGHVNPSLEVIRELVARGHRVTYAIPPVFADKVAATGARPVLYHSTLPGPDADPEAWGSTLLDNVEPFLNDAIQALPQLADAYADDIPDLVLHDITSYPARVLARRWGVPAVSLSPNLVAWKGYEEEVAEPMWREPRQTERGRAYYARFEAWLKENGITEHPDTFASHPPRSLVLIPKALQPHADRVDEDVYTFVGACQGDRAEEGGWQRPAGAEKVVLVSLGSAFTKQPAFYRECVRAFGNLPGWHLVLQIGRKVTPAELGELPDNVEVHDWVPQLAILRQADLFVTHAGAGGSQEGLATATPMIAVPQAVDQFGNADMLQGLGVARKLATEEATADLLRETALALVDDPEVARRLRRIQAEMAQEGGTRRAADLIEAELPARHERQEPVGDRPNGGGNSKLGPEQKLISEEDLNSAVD

Q: For `O=C(O)c1ccc(O)cc1` [XI, 4-hydroxybenzoic acid], which “digestion of probe DNA by MfeI (loss of TbGT protection)” value (UDP-Glc titration) is on record?
A: no DNA was digested

Q: For `O=c1c(O)c(-c2ccc(O)cc2)oc2cc(O)cc(O)c12` [I, kaempferol], which “digestion of probe DNA by MfeI (loss of TbGT protection)” value (20 μM starting UDP-Glc, all components present) is on record?
A: significant DNA digestion occurred
